Results as given in paper PMC8330190 (Signal Transduction and Targeted Therapy, 2021).

System: SARS-CoV-2 HR1 target mimic peptide HR1P
Type: binding

| SMILES | Tm of complex with HR1P (binding stability) [°C] |
| --- | --- |
| CC[C@H](C)[C@H](NC(=O)[C@H](Cc1ccc(O)cc1)NC(=O)[C@H](CO)NC(=O)[C@H](CCC(=O)O)NC(=O)[C@H](CC(N)=O)NC(=O)[C@H](CC(C)C)NC(=O)[C@H](C)NC(=O)[C@H](CCCCN)NC(=O)[C@@H](NC(=O)[C@@H](NC(=O)[C@H](CCC(N)=O)NC(=O)[C@H](CCC(N)=O)NC(=O)[C@H](CC(C)C)NC(=O)[C@H](CO)NC(=O)[C@H](CC(C)C)NC(=O)[C@H](CCSC)NC(=O)[C@H](CCC(=O)O)NC(=O)[C@H](Cc1ccc(O)cc1)NC(=O)[C@@H](NC(=O)[C@H](CC(C)C)NC(=O)[C@H](CC(=O)O)NC(=O)[C@H](CC(C)C)NC(=O)[C@H](CC(C)C)NC(=O)[C@@H](NC(=O)[C@@H](NC(=O)[C@H](CC(N)=O)NC(=O)[C@@H](NC(=O)[C@H](CCC(N)=O)NC(=O)[C@@H](NC(=O)[C@H](CC(C)C)NC(=O)[C@H](CO)NC(C)=O)[C@@H](C)O)[C@@H](C)CC)[C@@H](C)O)[C@@H](C)O)[C@@H](C)O)C(C)C)C(C)C)C(=O)N[C@@H](CC(=O)O)C(=O)N[C@@H](CC(C)C)C(=O)N[C@@H](CCCCN)C(=O)N[C@@H](CCC(=O)O)C(=O)N[C@@H](CC(C)C)C(=O)NCCOCCOCCOCCOCCOCCOCCOCCOCCC(=O)N[C@@H](CCCCNC(=O)CCC(=O)O[C@H]1CC[C@@]2(C)C(=CC[C@H]3[C@@H]4CC[C@H]([C@H](C)CCCC(C)C)[C@@]4(C)CC[C@@H]32)C1)C(N)=O [MERS-LP] | 47 |
| CC[C@H](C)[C@H](NC(=O)[C@H](C)NC(=O)[C@H](CCC(=O)O)NC(=O)[C@H](CCC(N)=O)NC(=O)[C@H](CC(C)C)NC(=O)[C@H](CCCNC(=N)N)NC(=O)[C@H](CC(N)=O)NC(=O)[C@H](CCSC)NC(=O)[C@H](CCC(=O)O)NC(=O)[C@H](CC(=O)O)NC(=O)[C@H](CCC(N)=O)NC(=O)[C@H](CC(C)C)NC(=O)[C@H](CC(=O)O)NC(=O)[C@H](CC(C)C)NC(=O)[C@H](Cc1ccccc1)NC(=O)[C@@H](NC(=O)[C@@H](NC(=O)[C@H](CC(N)=O)NC(=O)[C@@H](NC(=O)[C@H](Cc1ccc(O)cc1)NC(=O)[C@H](CC(=O)O)NC(=O)[C@H](CC(C)C)NC(=O)[C@H](CO)NC(C)=O)[C@@H](C)CC)C(C)C)[C@@H](C)O)C(=O)N[C@@H](CCCCN)C(=O)N[C@H](C(=O)N[C@@H](CC(C)C)C(=O)N[C@@H](CC(N)=O)C(=O)N[C@@H](CCC(N)=O)C(=O)N[C@@H](CO)C(=O)N[C@@H](Cc1ccc(O)cc1)C(=O)N[C@H](C(=O)N[C@@H](CC(N)=O)C(=O)N[C@@H](CC(C)C)C(=O)N[C@@H](CCCCN)C(=O)N[C@@H](CC(=O)O)C(=O)N[C@H](C(=O)NCCOCCOCCOCCOCCOCCOCCOCCOCCC(=O)N[C@@H](CCCCNC(=O)CCC(=O)O[C@H]1CC[C@@]2(C)C(=CC[C@H]3[C@@H]4CC[C@H]([C@H](C)CCCC(C)C)[C@@]4(C)CC[C@@H]32)C1)C(N)=O)[C@@H](C)CC)[C@@H](C)CC)C(C)C [OC43-LP] | 63 |
